Key:
[1] = tested on: Asexual parasites of P. falciparum strain 3D7; assay: In vitro drug activity on asexual parasites (SYBR Green assay); type: cell-based, Plasmodium falciparum
In short: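 SYBR Green I fluorescence (ex 490, em 520 nm) was read after freeze-thaw lysis and 30 min staining at room temperature. Before that, drug-treated cultures (0.5% parasitemia, 2% hematocrit, DMSO ≤0.5%) were incubated 72 h, in duplicate.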

[2] = tested on: Stage III-V gametocytes (blood stage P. falciparum parasites); assay: In vitro drug activity on gametocytes (AlamarBlue viability assay); type: cell-based, Plasmodium falciparum; conditions: read-out: Gametocyte EC50
In short: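 Viability was measured by AlamarBlue fluorescence (Ex 525/Em 598 nm) after 24 h dye incubation following 72 h compound exposure at 37° C, 5% CO2. Gametocytes, stage III–V from strains 3D7, HB3 and Dd2, were NAG/Percoll-enriched and plated at 20,000 cells/well.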

Solubility at pH 7.4 = type: physicochemical
PAMPA permeability = type: in vitro ADME
[3] = Microsomal stability (rat); type: in vitro ADME; conditions: rat microsomes
mTOR = mTOR (Homo sapiens, UniProt P42345); assay: mTOR activity (no method described); type: biochemical

SMILES: CN(C)Cc1ccc(-c2ccc3ncc4ccc(=O)n(-c5ccc(C(=O)N6CCOCC6)cc5)c4c3c2)cc1 [Compound 86]
- EC50 [1]: 177 nM
- EC50 [2]: 212 nM
- Sol @ pH 7.4 (Solubility at pH 7.4): 61.6 ug/mL
- PAMPA Permeability (PAMPA permeability): 459 ×10⁻⁶ cm/s
- Microsomal Stability (rat) T1/2 [3]: >30.0 min
- mTOR (mTOR): 3776 nM

SMILES: O=C(NC1CC1)c1ccc(-n2c(=O)ccc3cnc4ccc(-c5ccc(Cl)cc5)cc4c32)cc1 [Compound 87]
- EC50 [1]: 24.4 nM
- EC50 [2]: 139 nM
- Sol @ pH 7.4 (Solubility at pH 7.4): 2.6 ug/mL
- PAMPA Permeability (PAMPA permeability): 33.1 ×10⁻⁶ cm/s
- Microsomal Stability (rat) T1/2 [3]: >30.0 min
- mTOR (mTOR): 241.1 nM

SMILES: CN(C)C(=O)c1ccc(-n2c(=O)ccc3cnc4ccc(-c5ccc(Cl)cc5)cc4c32)cc1 [Compound 100]
- EC50 [1]: 14.8 nM
- EC50 [2]: 45.5 nM
- Sol @ pH 7.4 (Solubility at pH 7.4): <1.0 ug/mL
- PAMPA Permeability (PAMPA permeability): 315 ×10⁻⁶ cm/s
- Microsomal Stability (rat) T1/2 [3]: 3.8 min
- mTOR (mTOR): 1531 nM

SMILES: CN1CCN(C(=O)c2ccc(-n3c(=O)ccc4cnc5ccc(-c6ccc(Cl)cc6)cc5c43)cc2)CC1 [Compound 102]
- EC50 [1]: 186 nM
- EC50 [2]: 116 nM
- Sol @ pH 7.4 (Solubility at pH 7.4): 7.5 ug/mL
- PAMPA Permeability (PAMPA permeability): 1080 ×10⁻⁶ cm/s
- Microsomal Stability (rat) T1/2 [3]: 5 min
- mTOR (mTOR): 5191 nM

SMILES: O=C(c1ccc(-n2c(=O)ccc3cnc4ccc(-c5ccc(Cl)cc5)cc4c32)cc1)N1CCNCC1 [Compound 103]
- EC50 [1]: 74.3 nM
- EC50 [2]: 71.3 nM
- Sol @ pH 7.4 (Solubility at pH 7.4): 6.3 ug/mL
- PAMPA Permeability (PAMPA permeability): 76.1 ×10⁻⁶ cm/s
- Microsomal Stability (rat) T1/2 [3]: 10.5 min
- mTOR (mTOR): 2997 nM

SMILES: O=C(c1ccc(-n2c(=O)ccc3cnc4ccc(-c5ccc(Cl)cc5)cc4c32)cc1)N1CCCCC1 [Compound 104]
- EC50 [1]: 215 nM
- EC50 [2]: 194 nM
- Sol @ pH 7.4 (Solubility at pH 7.4): <1.0 ug/mL
- PAMPA Permeability (PAMPA permeability): 389 ×10⁻⁶ cm/s
- Microsomal Stability (rat) T1/2 [3]: 1.4 min
- mTOR (mTOR): 2680 nM

SMILES: O=C(c1ccc(-n2c(=O)ccc3cnc4ccc(-c5ccc(Cl)cc5)cc4c32)cc1)N(CCO)CCO [Compound 105]
- EC50 [1]: 47.9 nM
- EC50 [2]: 94.3 nM
- Sol @ pH 7.4 (Solubility at pH 7.4): 14.8 ug/mL
- PAMPA Permeability (PAMPA permeability): 285 ×10⁻⁶ cm/s
- Microsomal Stability (rat) T1/2 [3]: 5.9 min
- mTOR (mTOR): 779.9 nM

SMILES: O=C(c1ccc(-n2c(=O)ccc3cnc4ccc(-c5ccc(Cl)cc5)cc4c32)cc1)N1CCCC1 [Compound 106]
- EC50 [1]: 64 nM
- EC50 [2]: 126 nM
- Sol @ pH 7.4 (Solubility at pH 7.4): <1.0 ug/mL
- PAMPA Permeability (PAMPA permeability): 621 ×10⁻⁶ cm/s
- Microsomal Stability (rat) T1/2 [3]: 2.1 min
- mTOR (mTOR): 1735 nM

SMILES: O=C(c1ccc(-n2c(=O)ccc3cnc4ccc(-c5ccc(F)cc5)cc4c32)cc1)N1CCOCC1 [Compound 107]
- EC50 [1]: 32.3 nM
- EC50 [2]: 65.9 nM
- Sol @ pH 7.4 (Solubility at pH 7.4): <1.0 ug/mL
- PAMPA Permeability (PAMPA permeability): 10.1 ×10⁻⁶ cm/s
- Microsomal Stability (rat) T1/2 [3]: 6.9 min
- mTOR (mTOR): 541.4 nM

SMILES: O=C(c1ccc(-n2c(=O)ccc3cnc4ccc(-c5ccc(Cl)cc5)cc4c32)cc1)N1CCC1 [Compound 108]
- EC50 [1]: 61.4 nM
- EC50 [2]: 59.1 nM
- Sol @ pH 7.4 (Solubility at pH 7.4): <1.0 ug/mL
- PAMPA Permeability (PAMPA permeability): 119 ×10⁻⁶ cm/s
- Microsomal Stability (rat) T1/2 [3]: <1.0 min
- mTOR (mTOR): 1165 nM

SMILES: O=C(c1ccc(-n2c(=O)ccc3cnc4ccc(-c5ccc(Cl)cc5)cc4c32)cc1)N1CCN(CCO)CC1 [Compound 109]
- EC50 [1]: 60.7 nM
- EC50 [2]: 18 nM
- Sol @ pH 7.4 (Solubility at pH 7.4): 4.2 ug/mL
- PAMPA Permeability (PAMPA permeability): 227 ×10⁻⁶ cm/s
- Microsomal Stability (rat) T1/2 [3]: 12.3 min
- mTOR (mTOR): 3260 nM

SMILES: CNC(=O)c1ccc(-n2c(=O)ccc3cnc4ccc(-c5ccc(Cl)cc5)cc4c32)cc1Cl [Compound 115]
- EC50 [1]: 8.14 nM
- EC50 [2]: 6.21 nM
- Sol @ pH 7.4 (Solubility at pH 7.4): <1.0 ug/mL
- PAMPA Permeability (PAMPA permeability): < 1 ×10⁻⁶ cm/s
- Microsomal Stability (rat) T1/2 [3]: 9 min
- mTOR (mTOR): 229.4 nM

SMILES: O=C(c1ccc(-n2c(=O)ccc3cnc4ccc(-c5ccc(Cl)cc5)cc4c32)cc1Cl)N1CCOCC1 [Compound 116]
- EC50 [1]: 22 nM
- EC50 [2]: 65 nM
- Sol @ pH 7.4 (Solubility at pH 7.4): <1.0 ug/mL
- PAMPA Permeability (PAMPA permeability): 383 ×10⁻⁶ cm/s
- Microsomal Stability (rat) T1/2 [3]: <1.0 min
- mTOR (mTOR): 454.6 nM

SMILES: O=C(c1ccc(-n2c(=O)ccc3cnc4ccc(-c5ccc(Cl)cc5)cc4c32)cc1C(F)(F)F)N1CCOCC1 [Compound 126]
- EC50 [1]: 24 nM
- EC50 [2]: 118 nM
- Sol @ pH 7.4 (Solubility at pH 7.4): <1.0 ug/mL
- PAMPA Permeability (PAMPA permeability): 1240 ×10⁻⁶ cm/s
- Microsomal Stability (rat) T1/2 [3]: 1.7 min
- mTOR (mTOR): 372.4 nM

SMILES: O=C1Cc2cc(-c3ccc4ncc5ccc(=O)n(-c6ccc(C(=O)N7CCOCC7)cc6)c5c4c3)ccc2N1 [Compound 127]
- EC50 [1]: 105 nM
- EC50 [2]: 169 nM
- Sol @ pH 7.4 (Solubility at pH 7.4): 7.3 ug/mL
- PAMPA Permeability (PAMPA permeability): 9.1 ×10⁻⁶ cm/s
- Microsomal Stability (rat) T1/2 [3]: 12.2 min
- mTOR (mTOR): 338.7 nM

SMILES: O=C(c1ccc(-n2c(=O)ccc3cnc4ccc(-c5cccc(O)c5)cc4c32)cc1)N1CCOCC1 [Compound 128]
- EC50 [1]: 6.05 nM
- EC50 [2]: 31.4 nM
- Sol @ pH 7.4 (Solubility at pH 7.4): 1.5 ug/mL
- PAMPA Permeability (PAMPA permeability): 735 ×10⁻⁶ cm/s
- Microsomal Stability (rat) T1/2 [3]: 12.7 min
- mTOR (mTOR): 310.6 nM

SMILES: O=C1NCc2cc(-c3ccc4ncc5ccc(=O)n(-c6ccc(C(=O)N7CCOCC7)cc6)c5c4c3)ccc21 [Compound 129]
- EC50 [1]: 1440 nM
- EC50 [2]: 680 nM
- Sol @ pH 7.4 (Solubility at pH 7.4): 20.3 ug/mL
- PAMPA Permeability (PAMPA permeability): 5.4 ×10⁻⁶ cm/s
- Microsomal Stability (rat) T1/2 [3]: >30.0 min
- mTOR (mTOR): 856.7 nM

SMILES: Nc1cccc(-c2ccc3ncc4ccc(=O)n(-c5ccc(C(=O)N6CCOCC6)cc5)c4c3c2)c1 [Compound 130]
- EC50 [1]: 20.2 nM
- EC50 [2]: 72.2 nM
- Sol @ pH 7.4 (Solubility at pH 7.4): 9.2 ug/mL
- PAMPA Permeability (PAMPA permeability): 467 ×10⁻⁶ cm/s
- Microsomal Stability (rat) T1/2 [3]: >30.0 min
- mTOR (mTOR): 202.1 nM

SMILES: O=C(O)c1cccc(-c2ccc3ncc4ccc(=O)n(-c5ccc(C(=O)N6CCOCC6)cc5)c4c3c2)c1 [Compound 131]
- EC50 [1]: 17500 nM
- EC50 [2]: 17400 nM
- Sol @ pH 7.4 (Solubility at pH 7.4): >75.0 ug/mL
- PAMPA Permeability (PAMPA permeability): 1.9 ×10⁻⁶ cm/s
- Microsomal Stability (rat) T1/2 [3]: >30.0 min
- mTOR (mTOR): 1557 nM

SMILES: CCN(CC)C(=O)c1ccc(-n2c(=O)ccc3cnc4ccc(-c5ccc(Cl)cc5)cc4c32)cc1 [Compound 132]
- EC50 [1]: 63.1 nM
- EC50 [2]: 344 nM
- Sol @ pH 7.4 (Solubility at pH 7.4): <1.0 ug/mL
- PAMPA Permeability (PAMPA permeability): 2320 ×10⁻⁶ cm/s
- Microsomal Stability (rat) T1/2 [3]: <1.0 min
- mTOR (mTOR): 736.2 nM

SMILES: N#Cc1cc(NC(=O)c2ccc(-n3c(=O)ccc4cnc5ccc(-c6ccc(Cl)cc6)cc5c43)cc2)ccc1F [Compound 133]
- EC50 [1]: 4000 nM
- EC50 [2]: 10100 nM
- Sol @ pH 7.4 (Solubility at pH 7.4): <1.0 ug/mL
- PAMPA Permeability (PAMPA permeability): < 5.4 ×10⁻⁶ cm/s
- Microsomal Stability (rat) T1/2 [3]: >30.0 min
- mTOR (mTOR): inactive

SMILES: O=C(c1ccc(-n2c(=O)ccc3cnc4ccc(-c5ccc(Cl)cc5O)cc4c32)cc1)N1CCOCC1 [Compound 134]
- EC50 [1]: 72.7 nM
- EC50 [2]: 256 nM
- Sol @ pH 7.4 (Solubility at pH 7.4): <1.0 ug/mL
- PAMPA Permeability (PAMPA permeability): 142 ×10⁻⁶ cm/s
- Microsomal Stability (rat) T1/2 [3]: 10.5 min
- mTOR (mTOR): 2007 nM

SMILES: CCc1ccc(-c2ccc3ncc4ccc(=O)n(-c5ccc(C(=O)N6CCOCC6)cc5)c4c3c2)cc1 [Compound 195]
- EC50 [2]: 276 nM
- Sol @ pH 7.4 (Solubility at pH 7.4): <1 ug/mL
- PAMPA Permeability (PAMPA permeability): 148 ×10⁻⁶ cm/s
- Microsomal Stability (rat) T1/2 [3]: 8.8 min
- mTOR (mTOR): 781.4 nM

SMILES: CC(C)(N)c1cccc(-c2ccc3ncc4ccc(=O)n(-c5ccc(C(=O)N6CCOCC6)cc5)c4c3c2)c1 [Compound 197]
- EC50 [2]: 65100 nM
- Sol @ pH 7.4 (Solubility at pH 7.4): >77 ug/mL
- PAMPA Permeability (PAMPA permeability): 3.5 ×10⁻⁶ cm/s
- Microsomal Stability (rat) T1/2 [3]: >30 min
- mTOR (mTOR): 2384 nM
